Reference: patent publication US20060111395A1, “Aryl-and heteroaryl-substituted tetrahydroisoquinolines and use thereof to block reuptake of norepinephrine, dopamine and serotonin” (AMR Technology, Inc., priority 2004, published 2006)

Columns and labels:
[1] = test system: dopamine transporter protein over the norepinephrine transporter protein; conditions: selectivity for DAT over NET; cited from earlier work
[2] = cited from earlier work

## CN1Cc2cc(-c3ccoc3)ccc2C(c2ccccc2)C1 (stereo not drawn)
other
  melting point: 188 to 189 °C (dec.)

## COC(=O)C(c1ccccc1)C1CCCCN1 (stereo not drawn) [Methylphenidate]
[1]
  DAT/NET Ki ratio: 0.1

## CN1Cc2c(N)cccc2C(c2ccccc2)C1 (stereo not drawn) [Nomofensine®]
[2]
  side effect of long term administration: fatal immune hemolytic anemia
